Assays:
Assay in all cases: Dundee kinase panel
Format in all cases: biochemical
Conditions in all cases: for remaining activity at 1 µM: read-out: residual activity
p38a MAPK = molecular target: T1, p38a MAPK (Homo sapiens, UniProt Q16539)
T1 construct: lines 1-140) and Reaction Biology
Description: (§1) Compounds were screened at 1 μM. For key hits, pIC50 values were then determined by HTRF as above. […] Stability in mouse and human liver microsomes was determined by Cyprotex.

PAK4 = molecular target: T2, PAK4 (Homo sapiens, UniProt O96013)
T2 construct: lines 1-140) and Reaction Biology
Description: as §1

LKB1 = molecular target: T3, LKB1 (Homo sapiens, UniProt Q15831)
T3 construct: lines 1-140) and Reaction Biology
T3 sequence (Q15831 1-433): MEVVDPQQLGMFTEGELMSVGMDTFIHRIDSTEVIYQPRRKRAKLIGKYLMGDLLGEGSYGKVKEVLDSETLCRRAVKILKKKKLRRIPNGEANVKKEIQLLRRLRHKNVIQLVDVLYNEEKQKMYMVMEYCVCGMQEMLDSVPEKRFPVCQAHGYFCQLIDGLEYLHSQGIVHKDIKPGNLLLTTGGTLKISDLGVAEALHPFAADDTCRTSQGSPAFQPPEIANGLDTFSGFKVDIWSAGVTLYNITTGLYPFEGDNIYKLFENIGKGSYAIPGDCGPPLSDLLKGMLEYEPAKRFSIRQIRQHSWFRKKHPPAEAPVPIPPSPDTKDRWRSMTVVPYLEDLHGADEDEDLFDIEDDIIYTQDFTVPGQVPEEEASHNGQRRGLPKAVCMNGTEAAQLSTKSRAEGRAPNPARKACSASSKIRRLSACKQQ
T3 sequence (Q7RTN6 1-431 partner): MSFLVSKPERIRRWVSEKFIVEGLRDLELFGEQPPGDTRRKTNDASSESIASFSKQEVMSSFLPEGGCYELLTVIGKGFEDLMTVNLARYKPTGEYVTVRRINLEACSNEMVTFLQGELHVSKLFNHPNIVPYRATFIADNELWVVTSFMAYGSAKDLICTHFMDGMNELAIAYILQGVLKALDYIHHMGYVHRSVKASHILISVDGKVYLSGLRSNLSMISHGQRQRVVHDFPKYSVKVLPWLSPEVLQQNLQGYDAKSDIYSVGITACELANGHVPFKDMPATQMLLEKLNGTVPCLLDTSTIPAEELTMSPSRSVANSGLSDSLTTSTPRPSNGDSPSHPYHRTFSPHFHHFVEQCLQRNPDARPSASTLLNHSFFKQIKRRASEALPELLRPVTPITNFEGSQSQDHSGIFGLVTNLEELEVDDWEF
T3 sequence (Q9Y376 1-341 partner): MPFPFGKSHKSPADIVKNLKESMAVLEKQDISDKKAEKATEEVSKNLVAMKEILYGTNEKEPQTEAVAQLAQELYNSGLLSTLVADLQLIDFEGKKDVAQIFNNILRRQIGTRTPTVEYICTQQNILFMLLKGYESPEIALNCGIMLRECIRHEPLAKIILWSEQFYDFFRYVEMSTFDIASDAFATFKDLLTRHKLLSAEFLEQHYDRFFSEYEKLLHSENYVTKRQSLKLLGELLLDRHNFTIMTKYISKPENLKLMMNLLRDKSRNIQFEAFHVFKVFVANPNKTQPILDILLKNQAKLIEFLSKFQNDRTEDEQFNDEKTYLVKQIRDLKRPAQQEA
Description: as §1

ZAP70 = molecular target: T4, ZAP70 (Homo sapiens, UniProt P43403)
T4 construct: lines 1-140) and Reaction Biology
T4 sequence (P43403 1-619): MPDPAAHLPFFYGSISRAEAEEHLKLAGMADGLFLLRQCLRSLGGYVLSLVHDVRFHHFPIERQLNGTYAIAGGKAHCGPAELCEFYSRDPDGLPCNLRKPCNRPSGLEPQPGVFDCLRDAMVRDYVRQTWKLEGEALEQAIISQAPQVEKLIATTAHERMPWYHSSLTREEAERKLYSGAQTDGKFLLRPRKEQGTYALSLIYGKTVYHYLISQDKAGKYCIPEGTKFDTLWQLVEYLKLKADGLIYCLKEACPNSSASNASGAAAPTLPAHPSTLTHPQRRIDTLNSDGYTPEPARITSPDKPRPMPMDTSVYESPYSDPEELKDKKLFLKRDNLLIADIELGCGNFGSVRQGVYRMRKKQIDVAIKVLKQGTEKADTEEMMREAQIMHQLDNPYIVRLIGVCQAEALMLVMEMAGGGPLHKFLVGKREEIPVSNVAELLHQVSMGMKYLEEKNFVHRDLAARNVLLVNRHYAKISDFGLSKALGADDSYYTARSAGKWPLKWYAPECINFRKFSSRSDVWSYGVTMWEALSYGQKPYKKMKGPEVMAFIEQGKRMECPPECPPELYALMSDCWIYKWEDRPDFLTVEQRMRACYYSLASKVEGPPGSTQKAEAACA
Description: as §1

CK2 = molecular target: T5, CK2 (Homo sapiens, UniProt P68400)
T5 construct: lines 1-140) and Reaction Biology
Description: as §1

IKKe = molecular target: T6, IKKe (Homo sapiens, UniProt Q14164)
T6 construct: lines 1-140) and Reaction Biology
T6 sequence (Q14164 1-716): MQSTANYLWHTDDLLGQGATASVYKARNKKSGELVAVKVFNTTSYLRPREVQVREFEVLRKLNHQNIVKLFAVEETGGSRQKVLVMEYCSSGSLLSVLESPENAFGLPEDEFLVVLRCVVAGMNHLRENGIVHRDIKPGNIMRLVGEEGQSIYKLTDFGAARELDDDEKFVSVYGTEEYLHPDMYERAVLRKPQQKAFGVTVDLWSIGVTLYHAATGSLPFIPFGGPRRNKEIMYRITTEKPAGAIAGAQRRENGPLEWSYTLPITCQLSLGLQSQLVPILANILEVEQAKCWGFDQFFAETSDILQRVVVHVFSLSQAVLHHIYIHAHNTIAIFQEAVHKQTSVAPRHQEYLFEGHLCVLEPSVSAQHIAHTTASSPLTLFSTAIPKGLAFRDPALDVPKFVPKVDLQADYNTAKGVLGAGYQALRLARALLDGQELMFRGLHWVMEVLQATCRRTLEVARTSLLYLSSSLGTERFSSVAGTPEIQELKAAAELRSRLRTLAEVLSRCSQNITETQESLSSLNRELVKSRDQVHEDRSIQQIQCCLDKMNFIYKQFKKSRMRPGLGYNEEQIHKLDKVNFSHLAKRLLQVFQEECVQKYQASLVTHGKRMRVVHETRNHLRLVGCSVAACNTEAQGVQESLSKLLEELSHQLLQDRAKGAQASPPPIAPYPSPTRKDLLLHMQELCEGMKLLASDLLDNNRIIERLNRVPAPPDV
Description: as §1

MKK1 = molecular target: T7, MKK1 (Homo sapiens, UniProt Q02750)
T7 construct: lines 1-140) and Reaction Biology
Description: as §1

PIM3 = molecular target: T8, PIM3 (Homo sapiens, UniProt Q86V86)
T8 construct: lines 1-140) and Reaction Biology
Description: as §1

ERK2 = molecular target: T9, ERK2 (Homo sapiens, UniProt P28482)
T9 construct: lines 1-140) and Reaction Biology
Description: as §1

T2 sequence (O96013 whole entry): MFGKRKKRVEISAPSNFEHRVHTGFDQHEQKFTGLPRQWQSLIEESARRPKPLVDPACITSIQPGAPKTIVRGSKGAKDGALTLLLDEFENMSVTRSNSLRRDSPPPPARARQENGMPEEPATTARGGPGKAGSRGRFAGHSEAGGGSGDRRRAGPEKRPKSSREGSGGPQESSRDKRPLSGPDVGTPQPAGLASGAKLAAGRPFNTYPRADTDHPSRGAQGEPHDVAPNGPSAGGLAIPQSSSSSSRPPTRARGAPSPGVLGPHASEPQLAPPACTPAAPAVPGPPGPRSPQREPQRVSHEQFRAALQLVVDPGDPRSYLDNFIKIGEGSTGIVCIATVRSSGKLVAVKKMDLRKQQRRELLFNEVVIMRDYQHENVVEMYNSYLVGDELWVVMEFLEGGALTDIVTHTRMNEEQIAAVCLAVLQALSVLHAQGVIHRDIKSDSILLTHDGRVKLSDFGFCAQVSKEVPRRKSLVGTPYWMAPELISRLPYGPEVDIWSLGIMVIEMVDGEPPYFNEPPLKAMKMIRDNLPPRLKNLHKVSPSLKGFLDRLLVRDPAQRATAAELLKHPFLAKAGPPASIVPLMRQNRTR
T1 sequence (Q16539 whole entry): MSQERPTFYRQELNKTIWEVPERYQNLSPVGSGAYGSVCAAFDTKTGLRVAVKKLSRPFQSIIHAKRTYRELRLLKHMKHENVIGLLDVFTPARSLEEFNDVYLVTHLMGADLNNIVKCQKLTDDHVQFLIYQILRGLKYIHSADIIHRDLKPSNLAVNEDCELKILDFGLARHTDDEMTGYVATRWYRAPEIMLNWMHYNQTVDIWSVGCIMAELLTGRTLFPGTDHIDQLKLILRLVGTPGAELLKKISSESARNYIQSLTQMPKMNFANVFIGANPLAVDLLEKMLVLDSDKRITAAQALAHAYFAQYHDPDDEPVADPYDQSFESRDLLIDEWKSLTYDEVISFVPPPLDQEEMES
T7 sequence (Q02750 whole entry): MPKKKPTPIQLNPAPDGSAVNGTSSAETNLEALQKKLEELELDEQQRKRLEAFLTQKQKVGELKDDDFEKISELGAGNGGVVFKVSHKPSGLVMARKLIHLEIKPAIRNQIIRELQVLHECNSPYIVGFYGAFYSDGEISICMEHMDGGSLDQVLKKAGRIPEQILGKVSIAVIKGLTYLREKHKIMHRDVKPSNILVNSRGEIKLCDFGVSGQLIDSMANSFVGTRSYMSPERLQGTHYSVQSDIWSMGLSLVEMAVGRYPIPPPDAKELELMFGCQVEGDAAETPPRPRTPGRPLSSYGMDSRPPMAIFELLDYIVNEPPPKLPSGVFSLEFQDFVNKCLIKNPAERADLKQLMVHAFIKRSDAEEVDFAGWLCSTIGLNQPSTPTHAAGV
T5 sequence (P68400 whole entry): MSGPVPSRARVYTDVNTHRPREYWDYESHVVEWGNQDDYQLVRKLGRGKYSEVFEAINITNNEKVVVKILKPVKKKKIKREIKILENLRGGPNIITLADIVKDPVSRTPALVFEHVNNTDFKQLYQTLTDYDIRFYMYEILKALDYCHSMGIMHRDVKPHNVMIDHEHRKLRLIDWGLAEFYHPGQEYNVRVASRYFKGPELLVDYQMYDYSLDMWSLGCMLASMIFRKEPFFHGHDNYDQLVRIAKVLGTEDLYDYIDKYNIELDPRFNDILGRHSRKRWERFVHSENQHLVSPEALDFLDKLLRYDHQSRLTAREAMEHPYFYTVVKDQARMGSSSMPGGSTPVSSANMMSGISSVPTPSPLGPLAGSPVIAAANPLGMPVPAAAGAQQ
T9 sequence (P28482 whole entry): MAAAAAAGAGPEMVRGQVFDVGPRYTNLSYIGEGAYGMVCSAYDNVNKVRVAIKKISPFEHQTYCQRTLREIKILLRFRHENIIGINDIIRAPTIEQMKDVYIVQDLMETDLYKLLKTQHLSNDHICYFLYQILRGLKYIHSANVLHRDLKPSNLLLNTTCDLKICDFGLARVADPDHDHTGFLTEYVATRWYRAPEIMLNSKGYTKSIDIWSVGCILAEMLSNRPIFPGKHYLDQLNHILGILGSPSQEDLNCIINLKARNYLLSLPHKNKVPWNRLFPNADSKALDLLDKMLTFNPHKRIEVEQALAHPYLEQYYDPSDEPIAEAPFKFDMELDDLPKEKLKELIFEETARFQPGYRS

Row | Structure (SMILES) | remaining activity at 1 µM (p38a MAPK) [%] | remaining activity at 1 µM (PAK4) [%] | remaining activity at 1 µM (LKB1) [%] | remaining activity at 1 µM (ZAP70) [%] | remaining activity at 1 µM (CK2) [%] | remaining activity at 1 µM (IKKe) [%] | remaining activity at 1 µM (MKK1) [%] | remaining activity at 1 µM (PIM3) [%] | remaining activity at 1 µM (ERK2) [%] | residual activity (p38a MAPK; 1 μM) [%] | residual activity (PAK4; 1 μM) [%] | residual activity (LKB1; 1 μM) [%] | residual activity (ZAP70; 1 μM) [%] | residual activity (CK2; 1 μM) [%] | residual activity (IKKe; 1 μM) [%] | residual activity (MKK1; 1 μM) [%] | residual activity (PIM3; 1 μM) [%] | residual activity (ERK2; 1 μM) [%]
1 | COCCOc1ccc(-c2cn(-c3ccccc3)c3nc[nH]c(=O)c23)cc1 [DMX-5804, 5-[4-(2-methoxy-ethoxy)-phenyl]-7-phenyl-3,7-dihydro-pyrrolo[2,3-d]pyrimidin-4-one] | 96 | 100 | 105 | 94 | 104 | 106 | 113 | 88 | 76 |  |  |  |  |  |  |  |  | 
2 | Oc1ncnc2c1c(-c1ccccc1)cn2-c1ccccc1 [F1386-0303, 5,7-diphenyl-7H-pyrrolo[2,3-d]pyrimidin-4-ol] | 78 | 105 | 96 | 114 | 77 | 139 | 101 | 74 | 99 |  |  |  |  |  |  |  |  | 
3 | Nc1ncc(C(=O)NC2CN(C(=O)C3CC3)C2)c2ccc(-c3cccc(F)c3)nc12 [GNE-495] |  |  |  |  |  |  |  |  |  | 95 | 28 | 87 | 109 | 93 | 79 | 56 | 87 | 104
4 | O=C1Nc2ccc(I)cc2/C1=C/c1cc(Br)c(O)c(Br)c1 [GW5074] | 49 | 94 | 68 | 98 | 72 | 82 | 80 | 6 | 106 |  |  |  |  |  |  |  |  | 
5 | O=C1Cc2c([nH]c3ccc(Br)cc23)-c2ccccc2N1 [Kenpaullone] | 94 | 104 | 89 | 59 | 90 | 98 | 97 | 103 | 124 |  |  |  |  |  |  |  |  | 

From paper PMC6458995, “MAP4K4 Inhibition Promotes Survival of Human Stem Cell-Derived Cardiomyocytes and Reduces Infarct Size In Vivo” (Cell Stem Cell, 2019)
